One experiment has as its target Hu PD-L1/PD-1 (Homo sapiens, UniProt Q9NZQ7). Put plainly: Cell binding assay Hu PD-L1/PD-1 (Tables 11-13, cell line not given). It counts as cell-based. As for the experimental part: The ability of the macrocyclic peptides of the present disclosure to bind to Jurkat, mouse B cell line (LK35.2), and a human lung adenocarcinoma cell line (L2987) was investigated. Jurkat-PD-1 Cell Binding Assay. Phycoerythrin (PE) was covalently linked to the Ig epitope tag of human PD-L1-Ig and fluorescently-labeled PD-L1-Ig was used for binding studies with a Jurkat cell line over-expressing human PD-1 (Jurkat-PD-1). […] Cells were washed 3× in dPBS. Cells were resuspended in 200 μl of dPBS and binding was measured by flow cytometry. LK35.2-hPD-L1 Cell Binding Assay. Phycoerythrin (PE) was covalently linked to the Ig eptitope tag of human PD-1-Ig and fluorescently-labeled PD-1-Ig was used for binding studies with a mouse B cell line (LK35.2) stably over-expressing human PD-L1 (LK35.2-hPD-L1). Briefly, […] LK35.2-hPD-L1 cells were pre-incubated with inhibitor for 15 m in a 30 μl volume of RPMI supplemented with 2% fetal calf serum. 20 μl of PE-labeled PD-1-Ig (2 nM final), diluted in RPMI supplemented with 2% fetal calf serum, was dispensed on top of cells and inhibitor and binding was allowed to take place for 1 h at room temperature. Cells were washed 3× in dPBS. Cells were resuspended in 200 μl of dPBS and binding was measured by flow cytometry. L2987 Cellomics Cell Binding Assay. Phycoerythrin (PE) was covalently linked to the Ig eptitope tag of human PD-1-Ig and fluorescently-labeled PD-1-Ig was used for binding studies with a human lung adenocarcinoma cell line (L2987) which naturally expresses PD-L1. […] The following day, inhibitors were diluted in serum-free DMEM and 25 μl was dispensed on top of cells. […] Samples were incubated for 1 h at 37° C. followed by 2 washes in dPBS and fixation for 30 m with 4% paraformaldehyde. Samples were further washed 2× in dPBS. Hoechst (final 1 μg/ml) was added to final wash to stain nuclei. Plates were processed using a Cellomics […]®.

In another experiment the target is T1, Human PD-L1/PD-1 (Homo sapiens, UniProt Q9NZQ7).
T1 construct: made in house; host or cells: HEK293T
Put plainly: HTRF PD-1-Ig/PD-L1-His binding assay (human PD-L1). The settings on record: read-out: HTRF Human PD-L1/PD-1 Binding Assay IC50. The procedure, abridged:
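The time-resolved fluorescence signal comes from Eu-cryptate anti-Ig (1 nM) and APC anti-His (20 nM) antibodies bound to a PD-1-Ig/PD-L1-His complex. Both partners lack transmembrane regions.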
Background: In TR-FRET formats the signal depends on donor and acceptor labels being close together.

The mark [1] stands for this setting: Table 13, Compound No. 71 series.
The mark [2] stands for this setting: Table 8, Compound No. 1 variant macrocyclic peptides.

Read-outs that look alike come from different tables or passages of the source. Positions of bridges follow the written chain, without caps; N, C: chain ends. Non-standard residues stand in square brackets, D forms with d. Residues, ends and D or L forms follow the SMILES beside them. ξ: configuration not given here. Bip = N[C@@H](Cc1ccc(-c2ccccc2)cc1)C(=O)O; Phe(4-F) = N[C@@H](Cc1ccc(F)cc1)C(=O)O; NMeF = CN[C@@H](Cc1ccccc1)C(=O)O; 3Thi = N[C@@H](Cc1ccsc1)C(=O)O; NMeNle = CCCC[C@H](NC)C(=O)O; NMeV = CN[C@H](C(=O)O)C(C)C; dNle = CCCC[C@@H](N)C(=O)O; NMeA = CN[C@@H](C)C(=O)O; ξV = CC(C)C(N)C(=O)O; ξP = O=C(O)C1CCCN1; ξC = NC(CS)C(=O)O; Sar = CNCC(=O)O A value given as a limit tells only on which side of the number the result lay.

T1 sequence (Q9NZQ7 with tags, fused parts or gaps): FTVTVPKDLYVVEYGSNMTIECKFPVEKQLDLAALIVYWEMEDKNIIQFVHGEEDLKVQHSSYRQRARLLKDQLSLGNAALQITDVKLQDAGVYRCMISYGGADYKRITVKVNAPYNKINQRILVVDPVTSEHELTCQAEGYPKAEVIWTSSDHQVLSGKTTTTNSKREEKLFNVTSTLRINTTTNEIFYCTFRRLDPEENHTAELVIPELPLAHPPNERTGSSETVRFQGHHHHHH
Hu PD-L1/PD-1, sequence (Q9NZQ7 19-290): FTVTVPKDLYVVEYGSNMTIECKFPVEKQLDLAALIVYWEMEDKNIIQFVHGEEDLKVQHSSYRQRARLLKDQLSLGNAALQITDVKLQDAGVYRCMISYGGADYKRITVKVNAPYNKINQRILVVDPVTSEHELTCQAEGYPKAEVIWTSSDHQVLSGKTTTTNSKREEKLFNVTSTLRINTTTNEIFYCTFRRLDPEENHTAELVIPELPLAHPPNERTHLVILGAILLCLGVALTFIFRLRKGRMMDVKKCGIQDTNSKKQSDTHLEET

Turning to `CCCC[C@H]1C(=O)N(C)[C@@H](CCCC)C(=O)N[C@@H](CCCNC(=N)N)C(=O)N[C@H](C(=O)NCC(N)=O)CSCC(=O)N[C@@H](Cc2ccccc2)C(=O)N(C)[C@@H](C(C)C)C(=O)N[C@@H](CC(N)=O)C(=O)N2CCC[C@H]2C(=O)N[C@@H](Cc2c[nH]cn2)C(=O)N[C@@H](CC(C)C)C(=O)N(C)CC(=O)N[C@@H](Cc2c[nH]c3ccccc23)C(=O)N[C@@H](CO)C(=O)N[C@@H](Cc2c[nH]c3ccccc23)C(=O)N1C` [Compound No. 41] ({CH2CO}-F[NMeV]NPHL[Sar]WSW[NMeNle][NMeNle]RCG-NH2; thioether N-14), the IC50 on Hu PD-L1/PD-1 was above 10000 nM.
Compound `CCCC[C@H]1C(=O)N(C)CC(=O)N[C@@H](CC(=O)O)C(=O)NC(C(C)C)C(=O)N(C)[C@@H](Cc2ccccc2)C(=O)N[C@@H](Cc2ccc(O)cc2)C(=O)N(C)CC(=O)N[C@@H](Cc2c[nH]c3ccccc23)C(=O)N[C@@H](C)C(=O)N[C@@H](CC(C)C)C(=O)N[C@H](C(=O)NCC(N)=O)CSCC(=O)N[C@@H](Cc2ccccc2)C(=O)N(C)[C@@H](Cc2ccccc2)C(=O)N1C` (some centres unmarked) [Compound No. 86] ({CH2CO}-F[NMeF][NMeNle][Sar]D[ξV][NMeF]Y[Sar]WALCG-NH2; thioether N-13) had an IC50 at Hu PD-L1/PD-1 (setting [1]) of 7250 nM.
`CCCC[C@H]1C(=O)N(C)[C@@H](CCCC)C(=O)N[C@@H](CCCNC(=N)N)C(=O)N[C@H](C(=O)NCC(N)=O)CSCC(=O)N[C@@H](Cc2ccccc2)C(=O)N(C)[C@@H](C)C(=O)N[C@@H](CC(N)=O)C(=O)N2CCC[C@H]2C(=O)N[C@@H](Cc2cnc[nH]2)C(=O)N[C@@H](CC(C)C)C(=O)N(C)CC(=O)N[C@@H](Cc2c[nH]c3ccccc23)C(=O)N[C@@H](CO)C(=O)N[C@@H](CC(C)C)C(=O)N1C` [Compound No. 63] ({CH2CO}-F[NMeA]NPHL[Sar]WSL[NMeNle][NMeNle]RCG-NH2; thioether N-14) registered an IC50 at Hu PD-L1/PD-1 above 10000 nM.
In the case of `CCCC[C@H]1C(=O)N(C)[C@@H](CCCC)C(=O)N[C@@H](CC(C)C)C(=O)N[C@H](C(=O)NCC(N)=O)CSCC(=O)N[C@@H](Cc2ccccc2)C(=O)N(C)[C@@H](C)C(=O)N[C@@H](CC(N)=O)C(=O)N2CCC[C@H]2C(=O)N[C@@H](Cc2c[nH]cn2)C(=O)N[C@@H](CC(C)C)C(=O)N[C@@H](CO)C(=O)N[C@@H](Cc2c[nH]c3ccccc23)C(=O)N[C@@H](CCCNC(=N)N)C(=O)N[C@@H](Cc2c[nH]c3ccccc23)C(=O)N1C` [Compound No. 4] ({CH2CO}-F[NMeA]NPHLSWRW[NMeNle][NMeNle]LCG-NH2; thioether N-14), the IC50 on Human PD-L1/PD-1 (Table 6) and at Hu PD-L1/PD-1 (Table 11) was 15 nM throughout.
For `CCCC[C@H]1C(=O)N[C@@H](CCCNC(=N)N)C(=O)N[C@H](C(=O)NCC(N)=O)CSCC(=O)N[C@@H](Cc2ccccc2)C(=O)N(C)[C@@H](C)C(=O)N[C@@H](CC(N)=O)C(=O)N2CCCC2C(=O)N[C@@H](Cc2cnc[nH]2)C(=O)N[C@@H](CC(C)C)C(=O)N(C)CC(=O)N[C@@H](Cc2c[nH]c3ccccc23)C(=O)N[C@@H](CO)C(=O)N[C@@H](Cc2c[nH]c3ccccc23)C(=O)N(C)[C@@H](C)C(=O)N1C` (some centres unmarked) [Compound No. 19] ({CH2CO}-F[NMeA]N[ξP]HL[Sar]WSW[NMeA][NMeNle]RCG-NH2; thioether N-14), the IC50 at Human PD-L1/PD-1 (setting [2]) was 33 nM; at Hu PD-L1/PD-1, 134 nM.
Compound `CCCC[C@H]1C(=O)N(C)[C@@H](CCCC)C(=O)N[C@@H](CCCNC(=N)N)C(=O)N[C@H](C(=O)NCC(N)=O)CSCC(=O)N[C@@H](C)C(=O)N(C)[C@@H](C)C(=O)N[C@@H](CC(N)=O)C(=O)N2CCCC2C(=O)N[C@@H](Cc2cnc[nH]2)C(=O)N[C@@H](CC(C)C)C(=O)N(C)CC(=O)N[C@@H](Cc2c[nH]c3ccccc23)C(=O)N[C@@H](CO)C(=O)N[C@@H](Cc2c[nH]c3ccccc23)C(=O)N1C` (some centres unmarked) [Compound No. 5] ({CH2CO}-A[NMeA]N[ξP]HL[Sar]WSW[NMeNle][NMeNle]RCG-NH2; thioether N-14) had an IC50 at Hu PD-L1/PD-1 above 10000 nM.
As to `CCCC[C@H]1C(=O)N(C)[C@@H](CCCC)C(=O)N[C@@H](CCCNC(=N)N)C(=O)NC(C(=O)NCC(N)=O)CSCC(=O)N[C@@H](Cc2ccsc2)C(=O)N(C)[C@@H](C)C(=O)N[C@@H](CC(N)=O)C(=O)N2CCC[C@H]2C(=O)N[C@@H](Cc2cnc[nH]2)C(=O)N[C@@H](CC(C)C)C(=O)N(C)CC(=O)N[C@@H](Cc2c[nH]c3ccccc23)C(=O)N[C@@H](CO)C(=O)N[C@@H](Cc2c[nH]c3ccccc23)C(=O)N1C` (some centres unmarked) [Compound No. 40] ({CH2CO}-[3Thi][NMeA]NPHL[Sar]WSW[NMeNle][NMeNle]R[ξC]G-NH2; thioether N-14), the values for the IC50 on Human PD-L1/PD-1 (setting [2]) and at Hu PD-L1/PD-1 were 9 nM and 20 nM, respectively.
As for `CCCC[C@@H]1NC(=O)[C@H](Cc2ccccc2)N(C)C(=O)[C@H](Cc2ccccc2)NC(=O)CSC[C@@H](C(=O)NCC(N)=O)NC(=O)[C@H](CC(C)C)NC(=O)[C@H](Cc2ccc(O)cc2)NC(=O)[C@H](Cc2c[nH]c3ccccc23)NC(=O)CN(C)C(=O)[C@H](Cc2ccc(O)cc2)NC(=O)[C@H](Cc2ccccc2)N(C)C(=O)[C@H](C(C)C)NC(=O)[C@H](CC(=O)O)NC(=O)CN(C)C1=O` [Compound No. 76] (HELM PEPTIDE1{[O=C(C[*:3])[*:2]].F.[meF].[Nle].[Sar].D.V.[meF].Y.[Sar].W.Y.L.C.G.[am]}$PEPTIDE1,PEPTIDE1,1:R3-14:R3$$$V2.0), the IC50 was above 10000 nM on Human PD-L1/PD-1 (Table 9, Compound No. 71 variant macrocyclic peptides) and above 10000 nM at Hu PD-L1/PD-1 (setting [1]).
Consider `CCCC[C@H]1C(=O)N(C)[C@@H](CCCC)C(=O)N[C@@H](CCCNC(=N)N)C(=O)N[C@H](C(=O)NCC(N)=O)CSCC(=O)N[C@@H](Cc2ccc(-c3ccccc3)cc2)C(=O)N(C)[C@@H](C)C(=O)N[C@@H](CC(N)=O)C(=O)N2CCC[C@H]2C(=O)N[C@@H](Cc2cnc[nH]2)C(=O)N[C@@H](CC(C)C)C(=O)N(C)CC(=O)N[C@@H](Cc2c[nH]c3ccccc23)C(=O)N[C@@H](CO)C(=O)N[C@@H](Cc2c[nH]c3ccccc23)C(=O)N1C` [Compound No. 28] ({CH2CO}-[Bip][NMeA]NPHL[Sar]WSW[NMeNle][NMeNle]RCG-NH2; thioether N-14), for which the IC50 at Hu PD-L1/PD-1 is 82 nM.
On the same count and under the same terms, next, `CCCC[C@H]1C(=O)N(C)[C@@H](CCCC)C(=O)N[C@@H](CCCNC(=N)N)C(=O)N[C@@H](C(=O)NCC(N)=O)CSCC(=O)N[C@@H](Cc2ccc(F)cc2)C(=O)N(C)[C@@H](C)C(=O)N[C@@H](CC(N)=O)C(=O)N2CCC[C@H]2C(=O)N[C@@H](Cc2cnc[nH]2)C(=O)N[C@@H](CC(C)C)C(=O)N(C)CC(=O)N[C@@H](Cc2c[nH]c3ccccc23)C(=O)N[C@@H](CO)C(=O)N[C@@H](Cc2c[nH]c3ccccc23)C(=O)N1C` [Compound No. 32] ({CH2CO}-[Phe(4-F)][NMeA]NPHL[Sar]WSW[NMeNle][NMeNle]R[dC]G-NH2; thioether N-14): 25 nM.
On Hu PD-L1/PD-1 (setting [1]), `CCCC[C@H]1C(=O)N(C)CC(=O)N[C@@H](CC(=O)O)C(=O)N[C@@H](C(C)C)C(=O)N(C)[C@@H](Cc2ccccc2)C(=O)N[C@@H](Cc2ccc(O)cc2)C(=O)N(C)CC(=O)N[C@@H](Cc2c[nH]c3ccccc23)C(=O)N[C@@H](Cc2ccc(O)cc2)C(=O)N[C@@H](CC(C)C)C(=O)N[C@H](C(=O)NCC(N)=O)CSCC(=O)N[C@@H](C)C(=O)N(C)[C@@H](Cc2ccccc2)C(=O)N1C` [Compound No. 72] (HELM PEPTIDE1{[O=C(C[*:3])[*:2]].A.[meF].[CCCC[C@@H](C(=O)[*:2])N(C)[*:1]].[Sar].D.V.[meF].Y.[Sar].W.Y.L.C.G.[am]}$PEPTIDE1,PEPTIDE1,1:R3-14:R3$$$V2.0) displayed an IC50 above 10000 nM.
In turn, `CCCC[C@H]1C(=O)N(C)[C@@H](CCCC)C(=O)N[C@@H](CCCNC(=N)N)C(=O)N[C@H](C(=O)NCC(N)=O)CSCC(=O)N[C@@H](Cc2ccccc2)C(=O)N(C)[C@@H](C)C(=O)N[C@@H](CC(N)=O)C(=O)N[C@@H](C)C(=O)N[C@@H](Cc2cnc[nH]2)C(=O)N[C@@H](CC(C)C)C(=O)N(C)CC(=O)N[C@@H](Cc2c[nH]c3ccccc23)C(=O)N[C@@H](CO)C(=O)N[C@@H](Cc2c[nH]c3ccccc23)C(=O)N1C` [Compound No. 9] ({CH2CO}-F[NMeA]NAHL[Sar]WSW[NMeNle][NMeNle]RCG-NH2; thioether N-14) registered an IC50 at Hu PD-L1/PD-1 of 71 nM.
Consider `CCCC[C@H]1NC(=O)[C@H](Cc2c[nH]c3ccccc23)NC(=O)[C@H](CO)NC(=O)[C@H](Cc2c[nH]c3ccccc23)NC(=O)CN(C)C(=O)[C@H](CC(C)C)NC(=O)[C@H](Cc2cnc[nH]2)NC(=O)[C@@H]2CCCN2C(=O)[C@H](CC(N)=O)NC(=O)[C@H](C)N(C)C(=O)[C@H](Cc2ccccc2)NC(=O)CSC[C@@H](C(=O)NCC(N)=O)NC(=O)[C@H](CCCNC(=N)N)NC(=O)[C@H](CCCC)N(C)C1=O` [Compound No. 70] ({CH2CO}-F[NMeA]NPHL[Sar]WSW[dNle][NMeNle]RCG-NH2; thioether N-14), for which the IC50 on Hu PD-L1/PD-1 is above 10000 nM.

(Values after patent US9850283B2, “Macrocyclic inhibitors of the PD-1/PD-L1 and CD80(B7-1)/PD-L1 protein/protein interactions” (BRISTOL-MYERS SQUIBB COMPANY, priority 2013, dated 2017).)
